Where only a bound is given, the exact number is not on record here.

Test [1] addresses T1, P2X7 (Homo sapiens, UniProt Q99572).
T1 sequence (Q99572 1-595): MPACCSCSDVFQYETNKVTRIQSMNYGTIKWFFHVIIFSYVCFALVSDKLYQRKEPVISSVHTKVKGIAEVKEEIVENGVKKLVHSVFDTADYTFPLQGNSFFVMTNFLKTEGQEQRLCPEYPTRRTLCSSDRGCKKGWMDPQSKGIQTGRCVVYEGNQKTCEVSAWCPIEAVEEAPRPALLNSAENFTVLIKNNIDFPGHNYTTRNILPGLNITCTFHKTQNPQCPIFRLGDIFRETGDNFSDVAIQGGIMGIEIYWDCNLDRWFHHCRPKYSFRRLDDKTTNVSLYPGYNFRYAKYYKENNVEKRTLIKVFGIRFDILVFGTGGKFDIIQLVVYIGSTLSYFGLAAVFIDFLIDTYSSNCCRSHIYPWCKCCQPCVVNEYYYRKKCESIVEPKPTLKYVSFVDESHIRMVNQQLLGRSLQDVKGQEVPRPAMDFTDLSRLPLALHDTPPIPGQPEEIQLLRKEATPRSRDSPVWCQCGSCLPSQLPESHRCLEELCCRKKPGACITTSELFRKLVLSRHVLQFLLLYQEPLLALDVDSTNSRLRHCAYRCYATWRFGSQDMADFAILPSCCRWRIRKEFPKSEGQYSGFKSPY
Description: Ca2+ flux (FLIPR) in 1321N1 cells expressing recombinant human P2X7 channel. The settings on record: 250 μM BzATP. It is filed as cell-based. Further details: expressed in transfected cells; host or cells: 1321N1 cells. How it is done:
P2X7 Antagonism in Recombinant Human P2X7 Cells or Recombinant Rat P2X7 Cells: (a) Ca^2+ Flux and (b) Radioligand Binding
(a) Ca^2+ flux: 1321N1 cells expressing the recombinant human or rat P2X7 channel was cultured in HyQ DME/(HyClone/Dulbecco's Modified Eagle Medium) high glucose supplemented with 10% Fetal Bovine Serum (FBS) and appropriate selection marker. Cells were seeded at a density of 25000 cells/well (96-well clear bottom black walled plates) in 100 μl volume/well. On the day of the experiment, cell plates were washed with assay buffer, containing (in mM): 130 NaCl, 2 KCl, 1 CaCl2), 1 MgCl2, 10 HEPES, 5 glucose; pH 7.40 and 300 mOs. After the wash, cells were loaded with the Calcium-4 dye (Molecular Device) and incubated in the dark for 60 minutes. Test compounds were prepared at 250× the test concentration in neat DMSO. Intermediate 96-well compound plates were prepared by transferring 1.2 μL of the compound into 300 μL of assay buffer. A further 3× dilution occurred when transferring 50 μL/well of the compound plate to 100 μL/well in the cell plate. Cells were incubated with test compounds and dye for 30 minutes. […] The fluorescence change was measured 180 seconds after adding the agonist.
(In general: Calcium assays in cells follow changes in intracellular calcium, usually with a dye or a luminescent sensor.)

The target of test [2] is T1, P2X7. The experiment in a line: Radioligand binding, human P2X7-1321N1 cell membranes, tritiated A-804598.
A further test addresses T2, rat P2X7 (Rattus norvegicus, UniProt Q64663).
T2 sequence (Q64663 1-595): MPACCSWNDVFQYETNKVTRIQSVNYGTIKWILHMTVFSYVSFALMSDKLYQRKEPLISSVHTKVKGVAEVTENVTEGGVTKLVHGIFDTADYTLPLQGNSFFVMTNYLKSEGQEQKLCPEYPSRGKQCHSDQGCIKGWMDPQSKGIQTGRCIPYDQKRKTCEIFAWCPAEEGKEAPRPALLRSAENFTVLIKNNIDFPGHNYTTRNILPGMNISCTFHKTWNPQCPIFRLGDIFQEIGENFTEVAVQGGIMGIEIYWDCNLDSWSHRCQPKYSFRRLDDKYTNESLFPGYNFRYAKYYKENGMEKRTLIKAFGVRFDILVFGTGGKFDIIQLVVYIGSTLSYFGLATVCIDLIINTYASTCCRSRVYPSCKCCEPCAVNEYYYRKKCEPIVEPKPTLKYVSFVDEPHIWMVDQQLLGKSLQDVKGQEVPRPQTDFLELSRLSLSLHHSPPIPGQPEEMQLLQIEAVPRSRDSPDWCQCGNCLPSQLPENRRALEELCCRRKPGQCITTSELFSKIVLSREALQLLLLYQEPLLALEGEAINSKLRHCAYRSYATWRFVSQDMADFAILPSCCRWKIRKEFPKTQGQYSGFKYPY
Description: Ca2+ flux (FLIPR) in 1321N1 cells expressing recombinant rat P2X7 channel. The settings on record: FLIPR (rat) IC50 (μM), 250 μM BzATP.

Broadly, the IC50 is the concentration that gives 50% inhibition. The Ki is the equilibrium dissociation constant of an inhibitor or competing ligand from its target. `O=C(c1cccc(C(F)(F)F)c1Cl)N1CCn2c(-c3ccco3)nnc2C1c1ccccc1` (racemic) [Example 79, (±)-(2-chloro-3-(trifluoromethyl)phenyl)(3-(furan-2-yl)-8-phenyl-5,6-dihydro-[1,2,4]triazolo[4,3-a]pyrazin-7(8H)-yl)methanone]: the IC50 at P2X7 [1] amounted to 15.1 nM; on rat P2X7, 0.0071 µM. Besides, the affinity at P2X7 [2], expressed as Ki, was 100 nM.
With `CC(O)c1nnc2n1CCN(C(=O)c1cccc(C(F)(F)F)c1Cl)C2c1ccccc1` (racemic) [Example 80, (±)-(2-chloro-3-(trifluoromethyl)phenyl)(3-(1-hydroxyethyl)-8-phenyl-5,6-dihydro-[1,2,4]triazolo[4,3-a]pyrazin-7(8H)-yl)methanone], the results for the half-inhibitory concentration (IC50) on P2X7 [1] and at rat P2X7 were 56.3 nM and 0.395 µM, respectively. At P2X7 [2], the affinity corresponds to a Ki of 20 nM.
As to `Cc1nnc2n1CCN(C(=O)c1cccc(C(F)(F)F)c1Cl)C2c1ccccn1` (racemic) [Example 85, (±)-(2-chloro-3-(trifluoromethyl)phenyl)(3-methyl-8-(pyridin-2-yl)-5,6-dihydro-[1,2,4]triazolo[4,3-a]pyrazin-7(8H)-yl)methanone], the concentration for half-maximal inhibition (IC50) turned out to be 30.1 nM at P2X7 [1] and 1.02 µM at rat P2X7. At P2X7 [2], this compound gave an inhibition constant (Ki) of 39.8 nM.
For `O=C(c1cccc(Cl)c1Cl)N1CCn2c(nnc2C(F)(F)F)C1c1ccccc1` (racemic) [Example 90, (±)-(2,3-dichlorophenyl)(8-phenyl-3-(trifluoromethyl)-5,6-dihydro-[1,2,4]triazolo[4,3-a]pyrazin-7(8H)-yl)methanone] the same measures were 11.9 nM, 0.964 µM and 20 nM.
In the same order, the values of `Cc1nnc2n1CCN(C(=O)c1cccc(C(F)(F)F)c1Cl)C2c1ccc(F)cc1` (racemic) [Example 101, (±)-(2-chloro-3-(trifluoromethyl)phenyl)(8-(4-fluorophenyl)-3-methyl-5,6-dihydro-[1,2,4]triazolo[4,3-a]pyrazin-7(8H)-yl)methanone] are 27.8 nM, 5.06 µM and 31.6 nM.
Turning to `O=C(c1cccc(C(F)(F)F)c1Cl)N1CCn2c(nnc2C(F)(F)F)C1c1cccnc1` (racemic) [Example 127, (±)-(2-chloro-3-(trifluoromethyl)phenyl)(8-(pyridin-3-yl)-3-(trifluoromethyl)-5,6-dihydro-[1,2,4]triazolo[4,3-a]pyrazin-7(8H)-yl)methanone], the 50% inhibitory concentration (IC50) at P2X7 [1] is 255 nM; at rat P2X7 it was 28.2 µM. The compound further came in with a Ki on P2X7 [2] of 126 nM.
Turning to `CC1c2nnc(-c3ccccn3)n2CCN1C(=O)c1ccnc(C(F)(F)F)c1Cl` (centres unmarked) [Example 16, (3-chloro-2-(trifluoromethyl)pyridin-4-yl)(8-methyl-3-(pyridin-2-yl)-5,6-dihydro-[1,2,4]triazolo[4,3-a]pyrazin-7(8H)-yl)methanone], the IC50 at P2X7 [1] worked out at 19.5 nM; at rat P2X7 it was 0.0177 µM. At P2X7 [2], this compound yielded an inhibition constant (Ki) of 100 nM.
For `CC1c2nnc(-c3ccc(Cl)cc3)n2CCN1C(=O)c1cccc(C(F)(F)F)c1Cl` (centres unmarked) [Example 37, (2-chloro-3-(trifluoromethyl)phenyl)(3-(4-chlorophenyl)-8-methyl-5,6-dihydro-[1,2,4]triazolo[4,3-a]pyrazin-7(8H)-yl)methanone], the figures for the IC50 at P2X7 [1] and on rat P2X7 were 172 nM and 4.59 µM, respectively. Besides, the Ki on P2X7 [2] was found to be 251 nM.
For `O=C(c1cccc(C(F)(F)F)c1Cl)N1CCn2c(nnc2C(F)(F)F)[C@@H]1c1ccccc1` [Example 98, (S)-(2-chloro-3-(trifluoromethyl)phenyl)(8-phenyl-3-(trifluoromethyl)-5,6-dihydro-[1,2,4]triazolo[4,3-a]pyrazin-7(8H)-yl)methanone], the IC50 on P2X7 [1] was 5510 nM; at rat P2X7, greater than 10 µM.
For `O=C(c1cccc(Cl)c1Cl)N1CCn2c(nnc2C(F)(F)F)[C@@H]1c1ccccc1` [Example 103, (S)-(2,3-dichlorophenyl)(8-phenyl-3-(trifluoromethyl)-5,6-dihydro-[1,2,4]triazolo[4,3-a]pyrazin-7(8H)-yl)methanone] the same measures were 1400 nM and greater than 10 µM.
Turning to `Cc1nnc2n1CCN(C(=O)c1cccc(Cl)c1Cl)[C@@H]2c1ccc(F)cc1` [Example 104, (R)-(2,3-dichlorophenyl)(8-(4-fluorophenyl)-3-methyl-5,6-dihydro-[1,2,4]triazolo[4,3-a]pyrazin-7(8H)-yl)methanone], the half-inhibitory concentration (IC50) at P2X7 [1] was 4480 nM; on rat P2X7 it was greater than 10 µM.
As to `O=C(c1cccc(C(F)(F)F)c1Cl)N1CCn2c(C3CC3)nnc2[C@H]1c1ccc(F)cc1` [Example 106, (R)-(2-chloro-3-(trifluoromethyl)phenyl)(3-cyclopropyl-8-(4-fluorophenyl)-5,6-dihydro-[1,2,4]triazolo[4,3-a]pyrazin-7(8H)-yl)methanone], the IC50 on P2X7 [1] is greater than 10000 nM; at rat P2X7 it was greater than 10 µM.
With `O=C(c1cccc(C(F)(F)F)c1Cl)N1CCn2c(C(F)F)nnc2[C@@H]1c1ccccc1` [Example 109, (S)-(2-chloro-3-(trifluoromethyl)phenyl)(3-(difluoromethyl)-8-phenyl-5,6-dihydro-[1,2,4]triazolo[4,3-a]pyrazin-7(8H)-yl)methanone], the IC50 on P2X7 [1] is greater than 10000 nM; on rat P2X7 it was greater than 10 µM.
For `O=C(c1cccc(Cl)c1Cl)N1CCn2c(C(F)F)nnc2[C@@H]1c1ccccc1` [Example 111, (S)-(2,3-dichlorophenyl)(3-(difluoromethyl)-8-phenyl-5,6-dihydro-[1,2,4]triazolo[4,3-a]pyrazin-7(8H)-yl)methanone] the same measures were greater than 10000 nM and greater than 10 µM.
In the same order, the values of `Cc1nnc2n1CCN(C(=O)c1cccc(Cl)c1Cl)[C@H]2c1ccccn1` [Example 113, (S)-(2,3-dichlorophenyl)(3-methyl-8-(pyridin-2-yl)-5,6-dihydro-[1,2,4]triazolo[4,3-a]pyrazin-7(8H)-yl)methanone] are 3810 nM and greater than 10 µM.
Take `Cc1nnc2n1CCN(C(=O)c1cccc(C(F)(F)F)c1Cl)[C@@H]2c1ccc(F)cc1` [Example 114, (R)-(2-chloro-3-(trifluoromethyl)phenyl)(8-(4-fluorophenyl)-3-methyl-5,6-dihydro-[1,2,4]triazolo[4,3-a]pyrazin-7(8H)-yl)methanone]: the concentration for half-maximal inhibition (IC50) on P2X7 [1] is 4080 nM; at rat P2X7, greater than 10 µM.
In the same order, the values of `O=C(c1ccc(F)cc1Cl)N1CCn2c(nnc2C(F)(F)F)[C@H]1c1ccccc1` [Example 118, (R)-(2-chloro-4-fluorophenyl)(8-phenyl-3-(trifluoromethyl)-5,6-dihydro-[1,2,4]triazolo[4,3-a]pyrazin-7(8H)-yl)methanone] are 921 nM and 19.6 µM.
In the same order, the values of `O=C(c1ccc(F)c(Cl)c1Cl)N1CCn2c(nnc2C(F)(F)F)[C@@H]1c1ccccc1` [Example 125, (S)-(2,3-dichloro-4-fluorophenyl)(8-phenyl-3-(trifluoromethyl)-5,6-dihydro-[1,2,4]triazolo[4,3-a]pyrazin-7(8H)-yl)methanone] are 11700 nM and greater than 10 µM.
